Values quoted from earlier work, collected in patent US20130172260A1, “PREVENTION OF INDWELLING DEVICE RELATED INFECTION: COMPOSITION AND METHODS” (priority 2003, published 2013).

Tested on: Staphylococcus epidermidis
Conditions: 5 milli Molar in a medium

For `O=C(O)c1ccccc1O` [salicylic acid], the “inhibited both growth and Biofilm production” value is given as “up to 55%”.
